Consider 1 compound from patent US9512169B2, “3-substituted estra-1,3,5(10),16-tetraene derivatives, methods for the production thereof, pharmaceutical preparations containing same, and use thereof for the production of medicaments” (BAYER PHARMA AKTIENGESELLSCHAFT, priority 2012, dated 2016).

Each structure is given as a SMILES string. pIC50, pKd: −log10 of the molar value. Where “and” joins values, the source holds several entries; their conditions need not be identical. Equal values may be shown once.

The target in experiment [1] is T1, AKR1C3 (Homo sapiens (Human), UniProt P42330). Put plainly: AKR1C3 enzyme inhibition assay (Coumberone to Coumberol fluorescence). As to conditions: recombinant human AKR1C3, 15 min pre-incubation, 90 min at 22° C.; repeated lines = two experimental determinations. It is filed as biochemical. As for the experimental part:
The AKR1C3-inhibitory activity of the substances of the present invention was measured in the AKR1C3 assay described in the paragraphs below.
Essentially, the enzyme activity is measured by quantification of the Coumberol from Coumberone (Halim, M., Yee, D. J., and Sames, D., J. AM. CHEM. SOC. 130, 14123-14128 (2008) and Yee, D. J., Balsanek, V., Bauman, D. R., Penning, T. M., and Sames, D., Proc. Natl. Acad. Sci. USA 103, 13304-13309 (2006)). In this test, the increase of the highly fluorescent Coumberol by NADPH- (nicotinamide adenine dinucleotide phosphate)-dependent reduction of the non-fluorescent Coumberone by AKR1C3 can be determined.
The enzyme used was recombinant human AKR1C3 (Aldo-keto reductase family 1 member C3) (GenBank Accession No. NM_003739). This was expressed in E. coli as GST (glutathione S transferase) fusion protein and purified by glutathione Sepharose affinity chromatography. The GST was removed by digestion with thrombin and subsequent size exclusion chromatography (Dufort, I., Rheault, P., Huang, X F., Soucy, P., and Luu-The, V., Endocrinology 140, 568-574 (1999)).
For the assay, 50 nl of a 100-fold concentrated solution of the test substance in DMSO were pipetted into a black low-volume 384-well microtiter plate (Greiner Bio-One, Frickenhausen, Germany), 2.0 μl of a solution of AKR1C3 in assay buffer [50 mM potassium phosphate buffer pH 7, 1 mM DTT, 0.0022% (w/v) Pluronic F-127, 0.01% BSA (w/v) and protease inhibitor cocktail (Complete, EDTA-free Protease Inhibitor Cocktail from Roche)] were added and the mixture was incubated for 15 min to allow pre-binding of the substances to the enzyme prior to the enzyme reaction. The enzyme reaction was then started by addition of 3 μl of a solution of NADPH (16.7 μM→final concentration in 5 μl of assay volume is 10 μM) and Coumberone (0.5 μM→final concentration in 5 μl of assay volume is 0.3 μM) in assay buffer, and the resulting mixture was incubated at 22° C. for the reaction time of 90 min. The concentration of the AKR1C3 was adapted to the respective activity of the enzyme preparation and adjusted such that the assay was carried out in the linear range. Typical concentrations were in the region of 1 nM. The reaction was stopped by addition of 5 μl of a stop solution consisting of the inhibitor EM-1404 [F. Labrie et al. U.S. Pat. No. 6,541,463, 2003] (2 μM→final concentration in […] is 1 μM). The fluorescence of the Coumberole was then measured at 520 nm (excitation at 380 nm) using a suitable measuring instrument (Pherastar from BMG Labtechnologies). The intensity of the fluorescence was used as a measure of the amount of Coumberole formed and thus of the enzyme activity of AKR1C3. The data were normalized (enzyme reaction without inhibitor=0% inhibition; all other assay components, but no enzyme=100% inhibition).
As described, the pharmacological substances claimed were examined for their inhibitory activity on the AKR1C3 enzyme (see Table 1). The compounds claimed show a strong inhibition of AKR1C3 in vitro (IC50 values <200 nM) and in most cases even IC50 values <50 nM.

Experiment [2] concerns the target T1, AKR1C3. The experiment is described as follows: AKR1C3 inhibition in a cell-based system (HEK293 cells transfected with AKR1C3 expression plasmid, coumberol fluorescence). As to conditions: HEK293 cells transfected with AKR1C3, incubation overnight; repeated lines = independent determinations; read-out: Cellular AKR1C3 inhibition IC50. As to the method: The inhibition of AKR1C3 by the substances described in the present invention was measured in a cell-based assay using […] as substrate for the AKR1C3 (Halim, M., Yee, D. J., and Sames, D., J. AM. CHEM. SOC. 130, 14123-14128 (2008) and Yee, D. J., Balsanek, V., Bauman, D. R., Penning, T. M., and Sames, D., Proc. Natl. Acad. Sci. USA 103, 13304-13309 (2006)) (cf. Example 20).
The cell system used were HEK293 cells (ATCC, USA) (cell culture medium: DMEM, 1.5 g glucose, 10% FCS, PSG). The cells were transfected in an AKR1C3 expression plasmid (pCMV6-AC-AKR1C3, GenBank Accession No. NM_003739.4) overnight (X-tremeGENE HP, Roche). The next morning, the cells were sown in black 96well cell culture plates at a cell density of 40000 cells/well (Greiner Bio-One, Frickenhausen, Germany). After 7 h, the cells were incubated with the test substances (dissolved in 100× concentration in DMSO, final concentration between 10^−11M and 10^−5M) and […] (dissolved in cell culture medium, final concentration 5×10^−6M) overnight. The next morning, the fluorescence of coumberol was measured at 535 nm (excitation at 355 nm) using a suitable measuring instrument (Mithras, from Berthold). The fluorescence intensity was used as a measure of the amount of coumberol formed and thus of the enzyme activity of AKR1C3. The data were normalized (transfected cells without inhibitor, only DMSO=0% inhibition; transfected cells, 10 μM inhibitor EM-1404 [F. Labrie et al. U.S. Pat. No. 6,541,463, 2003]=100% inhibition), and the IC50 values were calculated using a 4-parameter fit.
In the cell-based assay described above, the pharmacological substances claimed were examined for their inhibitory activity on the AKR1C3 enzyme (see Table 2).

In experiment [3] the target is T1, AKR1C3. Put plainly: AKR1C3 binding by isothermal titration calorimetry. Further details: exothermal binding enthalpy: unit not given here. Conditions: ITC, 25° C., PBS buffer. As for the experimental part: Binding of Example compound 1 to the AKR1C3 enzyme was measured by isothermal titration calorimetry. The degree of affinity of a given compound can be stated using the dissociation constant (KD value). Human AKR1C3 enzyme was prepared as described in Example 20. For ITC experiments, human AKR1C3 protein was transferred by gel permeation into a PBS buffer consisting of 137 mM NaCl, 2.7 mM KCl, 10 mM Na2HPO4, 2 mM KH2PO4 and 1 mM tris(2-carboxyethyl)phosphine hydrochloride. The compounds were dissolved in 100% DMSO at a concentration of 10 mM and then diluted with PBS buffer. Isothermal titration calorimetry experiments (ITC experiments) were carried out using an ITC200 titration calorimeter (GE Healthcare, Northampton, Mass., USA) at a temperature of 25° C. The change in enthalpy resulting from the injection of the protein was determined by integration of the calorimetric signal. The data were analyzed with Origin 7.0 (GE Healthcare, Northampton, Mass., USA). Heat of dilution values were determined using the last injection of the titration in question and subtracted prior to curve fitting. The protein concentration in the injection syringe was in the range from 80 to 120 μM, and the concentration of the compound to be measured was in the range from 5 to 20 μM.

T1 sequence (P42330 whole entry): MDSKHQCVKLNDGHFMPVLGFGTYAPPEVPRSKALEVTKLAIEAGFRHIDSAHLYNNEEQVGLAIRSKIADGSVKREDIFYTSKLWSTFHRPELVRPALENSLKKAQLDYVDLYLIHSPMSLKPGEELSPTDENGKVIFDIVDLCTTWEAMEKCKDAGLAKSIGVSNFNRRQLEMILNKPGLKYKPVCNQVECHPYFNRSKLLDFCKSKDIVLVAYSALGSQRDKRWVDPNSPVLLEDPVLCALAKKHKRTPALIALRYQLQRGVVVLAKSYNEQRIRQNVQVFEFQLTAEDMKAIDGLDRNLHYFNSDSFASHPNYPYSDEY

Take `C[C@]12CC[C@@H]3c4ccc(CCC(=O)O)cc4CC[C@H]3[C@@H]1CC=C2c1cncc(F)c1` [Example 1, 3-[17-(5-Fluoropyridin-3-yl)estra-1,3,5(10),16-tetraen-3-yl]propanoic acid]: the pIC50 – broadly, the IC50 on a negative log10 scale, so that one unit is a factor of ten – at AKR1C3 [1] is 8.10 and 8.12; at AKR1C3 [2] it was 7.40 and 7.28 and 6.80. The compound also showed an exothermal binding enthalpy at AKR1C3 [3] of −1500. Moreover, the pKd (in general, the Kd on a negative log10 scale, so that one unit is a factor of ten) on AKR1C3 [3] (read-out: KD value (dissociation constant)) is 6.64.
